Among the data in patent US10201158B2, “Plant disease control composition and method for controlling plant disease by application of same” (MITSUI CHEMICALS AGRO, INC., priority 2014, dated 2019) are Preventive value and Control value values, retold here.

Like-named read-outs stand apart in the source and are kept apart here.

One experiment deals with Botrytis cinerea. The conditions noted are these: in vivo.
The next experiment deals with Sphaerotheca fuliginea. The experiment is described as follows: Cucumber powdery mildew preventive test. The conditions noted are these: in vivo. It counts as in vivo. Here is the method:
In a greenhouse, cucumber (variety: Sagamihanshiro) planted in a plastic pot having a diameter of 5 cm was grown to the 3rd to 5th-leaf stage. Spray was carried out in the same manner as in Test example 1, and 3 days after the spray, a conidia suspension prepared from Sphaerotheca fuliginea were inoculated on the leaf surface. After inoculation, the pots were placed in a thermostatic greenhouse (20 to 25° C.), and controlling effects were examined after 7 days from the inoculation. In the examination, a ratio of lesion area occupied per one leaf of cucumber was determined according to the same index as in Test example 1, and the control value and the theoretical value according to Colby's formula were similarly calculated.
Wettable powder prepared in compliance with Comparative Preparation Example 4 containing the compounds indicated in Table 7-9 were sprayed to the cucumber leaves, a conidiospore suspension prepared from Sphaerotheca fuliginea was inoculated onto the plants, and the controlling effects were examined in a manner similar to Test Example 6.

For another experiment, the system named is Pyricularia oryzae. It counts as in vivo. The conditions noted are these: Table 3-4, group b ingredient alone.

As for `CCCOc1nc2ccc(I)cc2c(=O)n1CCC` [Proquinazid (b-100), Proquinazid], the Preventive value with Botrytis cinerea was found to be 17; in the experiment on Sphaerotheca fuliginea it was 40. For the compound `c1ccc2[nH]c(-c3cscn3)nc2c1` [Thiabendazole (b-60), Thiabendazole], the Preventive value is given as 57 with Botrytis cinerea and 40 in the experiment with Sphaerotheca fuliginea. `CN(C)C(=S)SSC(=S)N(C)C` [Thiuram (b-68), Thiuram] gave a Preventive value with Sphaerotheca fuliginea of 33.

With `COC(=O)NCc1cc(/C(C)=N/OCc2cccc(C)n2)ccc1Cl` [Pyribencarb (b-98), Pyribencarb], the Preventive value in the experiment on Botrytis cinerea stood at 40. For `CCCCCCCCCCCCCN1CC(C)OC(C)C1` (stereo not drawn) [Tridemorph (b-66), Tridemorph], the Preventive value is 17 in the experiment on Botrytis cinerea and 33 in the experiment with Sphaerotheca fuliginea. As to `CON(C(=O)c1cn(C)nc1C(F)F)C(C)Cc1c(Cl)cc(Cl)cc1Cl` (stereo not drawn) [Compound of formula (III) (b-8)], the Preventive value in the experiment with Botrytis cinerea was 40; with Sphaerotheca fuliginea, 60. `S1SSSSSSS1` [Sulfur (b-96), Sulfur]: the Preventive value was 0 in the experiment with Botrytis cinerea and 73 with Sphaerotheca fuliginea. Consider `C=CCSC(=O)n1c(N)c(-c2ccccc2C)c(=O)n1C(C)C` [Fenpyrazamine (b-99), Fenpyrazamine], for which the Control value in the experiment on Sphaerotheca fuliginea turned out to be 33. With `Cn1cc(C(=O)Nc2ccccc2C2CC2C2CC2)c(C(F)F)n1` (stereo not drawn) [Sedaxane (b-6), Sedaxane], in the experiment with Botrytis cinerea, the Preventive value was found to be 50. The same compound yielded a Control value with Sphaerotheca fuliginea of 40.

In turn, `Cc1nn(C)c(F)c1C(=O)Nc1ccccc1C(C)CC(C)C` (stereo not drawn) [Penflufen (b-5), Penflufen] displayed a Preventive value with Botrytis cinerea of 47. The compound also showed a Control value in the experiment with Sphaerotheca fuliginea of 73.

`CN1OC(c2ccc(Cl)cc2)CC1(C)c1cccnc1` (stereo not drawn) [Pyrisoxazole (b-103), Pyrisoxazole] had a Preventive value in the experiment with Sphaerotheca fuliginea of 33.

As for `C[Si](Cn1cncn1)(c1ccc(F)cc1)c1ccc(F)cc1` [Flusilazole (b-31), Flusilazole], the values for the Preventive value in the experiment on Botrytis cinerea and with Sphaerotheca fuliginea were 17 and 33, respectively. Regarding `CCCC(Cn1cncn1)c1ccc(Cl)cc1Cl` (stereo not drawn) [Penconazole(b-32)], the Preventive value in the experiment on Sphaerotheca fuliginea is 47. For `Cc1nn(C)c(Nc2c(F)cc(Cl)cc2F)c1-c1ccc(F)cc1Cl` [Compound of formula (XV)-1 (b-89)], the Preventive value in the experiment with Botrytis cinerea and in the experiment on Sphaerotheca fuliginea was 40 in each case.

As to `CC(Cc1ccc(C(C)(C)C)cc1)CN1C[C@@H](C)O[C@@H](C)C1` (stereo partly drawn) [Fenpropimorph (b-65), Fenpropimorph], the Preventive value worked out at 17 in the experiment with Botrytis cinerea and 33 in the experiment with Sphaerotheca fuliginea. Taken in the same sequence, the figures for `CCCN(CC)CC1COC2(CCC(C(C)(C)C)CC2)O1` (stereo not drawn) [Spiroxamine (b-101), Spiroxamine] were 17 and 33. Take `Fc1ccc([C@]2(Cn3cncn3)O[C@H]2c2ccccc2Cl)cc1` (racemic) [Epoxiconazole (b-24), Epoxiconazole]: the Preventive value in the experiment on Botrytis cinerea turned out to be 33; with Sphaerotheca fuliginea it was 40.

With `CC1COC(Cn2cncn2)(c2ccc(Oc3ccc(Cl)cc3)cc2Cl)O1` (stereo not drawn) [Difenoconazole (b-29), Difenoconazole], the Preventive value with Botrytis cinerea is on record as 33; in the experiment with Sphaerotheca fuliginea it was 40. As for Propineb [Propineb (b-69)], the Preventive value with Botrytis cinerea is 33; in the experiment with Sphaerotheca fuliginea it was 17. Take `COc1cc(C)c(C(=O)c2c(OC)ccc(Br)c2C)c(OC)c1OC` [Metrafenone (b-82), Metrafenone]: the Preventive value in the experiment with Botrytis cinerea turned out to be 0; with Sphaerotheca fuliginea, 40. As to `CC(Cc1ccc(C(C)(C)C)cc1)CN1CCCCC1` (stereo not drawn) [Fenpropidin (b-102), Fenpropidin], the Preventive value in the experiment on Botrytis cinerea came to 17; in the experiment with Sphaerotheca fuliginea it was 40.

Regarding `CC(C)c1ccc(Cl)cc1CN(C(=O)c1c(C(F)F)nn(C)c1F)C1CC1` [Compound of formula (IV) (b-9)], the Preventive value was 40 with Botrytis cinerea and 60 in the experiment with Sphaerotheca fuliginea. On to `CO/C=C(/C(=O)OC)c1ccccc1COc1cccc(C(F)(F)F)n1` [Picoxystrobin (b-16), Picoxystrobin], for which the Preventive value in the experiment with Pyricularia oryzae (treatment concentration 10 + 2 ppm) was found to be 50.

Consider `CC1=C(C(=O)Nc2ccccc2)SCCO1` [Carboxin (b-41), Carboxin], for which the Preventive value in the experiment on Botrytis cinerea was 17. Besides, the Control value in the experiment on Sphaerotheca fuliginea is listed as 40. For the compound `CCCCNC(=O)n1c(NC(=O)OC)nc2ccccc21` [Benomyl (b-58), Benomyl], the Preventive value in the experiment on Botrytis cinerea turned out to be 60; with Sphaerotheca fuliginea, 50. Turning to `CCCCC(C#N)(Cn1cncn1)c1ccc(Cl)cc1` (stereo not drawn) [Myclobutanil (b-35), Myclobutanil], the Preventive value turned out to be 17 with Botrytis cinerea and 33 in the experiment on Sphaerotheca fuliginea. In the case of `COC(=O)Nc1nc2ccccc2[nH]1` [Carbendazim (b-59), Carbendazim], the Preventive value with Botrytis cinerea amounted to 40. Take `COc1cc(C)c(C(=O)c2c(OC)ncc(Cl)c2C)c(OC)c1OC` [Pyriofenone (b-83), Pyriofenone]: the Preventive value in the experiment on Botrytis cinerea is 33; in the experiment with Sphaerotheca fuliginea, 40. The like results for `OC(Cn1cncn1)(c1ccc(F)cc1)c1ccccc1F` (stereo not drawn) [Flutriafol (b-34), Flutriafol] were, in that order, 33 and 40.

Consider `FC(F)C(F)(F)OCC(Cn1cncn1)c1ccc(Cl)cc1Cl` (stereo not drawn) [Tetraconazole (b-22), Tetraconazole], for which the Preventive value is 40 in the experiment on Botrytis cinerea and 50 in the experiment with Sphaerotheca fuliginea. For `O=C1c2ccccc2C(=O)N1SC(Cl)(Cl)Cl` [Folpet (b-70), Folpet], the Preventive value in the experiment with Botrytis cinerea came out at 73; in the experiment on Sphaerotheca fuliginea, 33. Taken in the same sequence, the figures for `O=c1c2cc(F)ccc2nc(-n2cncn2)n1-c1ccc(Cl)cc1Cl` [Fluquinconazole (b-30), Fluquinconazole] were 33 and 47. For the compound `Fc1ccc(C2(Cn3nc[nH]c3=S)OC2c2ccccc2Cl)c(F)c1` (stereo not drawn) [Compound of (V) (b-36)], the Preventive value came out at 40 with Botrytis cinerea and 33 in the experiment on Sphaerotheca fuliginea. The like results for `CC1(C)CCC(Cc2ccc(Cl)cc2)C1(O)Cn1cncn1` (stereo not drawn) [Metconazole (b-26), Metconazole] were, in that order, 40 and 50. In the experiment with Botrytis cinerea, `CC(C)C1C2CCC1c1c(NC(=O)c3cn(C)nc3C(F)F)cccc12` (stereo not drawn) [Isopyrazam (b-7), Isopyrazam] came in with a Preventive value of 40. In the experiment on Sphaerotheca fuliginea, this compound came in with a Control value of 40. Turning to `Cc1ccc2nc3sc(=O)sc3nc2c1` [Chinomethionat (b-74), Chinomethionat], the Preventive value with Botrytis cinerea amounted to 17; in the experiment on Sphaerotheca fuliginea, 50.

As to `C=CCOC(Cn1ccnc1)c1ccc(Cl)cc1Cl` (stereo not drawn) [Imazalil (b-20), Imazalil], the Preventive value in the experiment on Botrytis cinerea came out at 17; with Sphaerotheca fuliginea it was 40. On to `CCCN(CCOc1c(Cl)cc(Cl)cc1Cl)C(=O)n1ccnc1` [Prochloraz (b-21), Prochloraz], for which the Preventive value in the experiment on Botrytis cinerea was 17.

Regarding `N#Cc1ccccc1NC(=O)c1snc(Cl)c1Cl` [Isotianil(b-46)], the Preventive value in the experiment on Sphaerotheca fuliginea worked out at 33. As for `CCCC(Cn1cncn1)c1ccc(Cl)cc1Cl` (stereo not drawn) [Penconazole (b-32), Penconazole], the Preventive value in the experiment on Botrytis cinerea is on record as 17. Regarding `OC(c1cccnc1)c1c(-c2ccc(Cl)cc2F)noc1-c1ccc(F)cc1F` (stereo not drawn) [Compound of (XVIII) (b-92)], the Preventive value in the experiment with Botrytis cinerea is recorded as 50; with Sphaerotheca fuliginea, 40.

In turn, `Cc1cc(C2CC2)nc(Nc2ccccc2)n1` [Cyprodinil (b-61), Cyprodinil] registered a Preventive value in the experiment on Botrytis cinerea of 50. In the experiment with Sphaerotheca fuliginea, this compound had a Control value of 40. Regarding `CC(C1CC1)C(O)(Cn1cncn1)c1ccc(Cl)cc1` (stereo not drawn) [Cyproconazole (b-28), Cyproconazole], the Preventive value came out at 17 in the experiment with Botrytis cinerea and 47 in the experiment on Sphaerotheca fuliginea. As for `CCCC1COC(Cn2cncn2)(c2ccc(Cl)cc2Cl)O1` (stereo not drawn) [Propiconazole (b-27), Propiconazole], the Preventive value with Botrytis cinerea came out at 33; in the experiment on Sphaerotheca fuliginea it was 40.

With `N#Cc1ccccc1NC(=O)c1snc(Cl)c1Cl` [Isotianil (b-46), Isotianil], the Preventive value in the experiment with Pyricularia oryzae (treatment concentration 10 + 10 ppm) is 50.

On to `CCCN(CCOc1c(Cl)cc(Cl)cc1Cl)C(=O)n1ccnc1` [Prochloraz(b-21)], for which, in the experiment on Sphaerotheca fuliginea, the Preventive value is listed as 50.

In the experiment with Sphaerotheca fuliginea, Metiram [Metiram (b-67)] showed a Preventive value of 33. With `CCN(C)/C=N/c1cc(C)c(Oc2nc(Cc3ccc(Cl)cc3)ns2)cc1C` [Compound of formula (XVII) (b-91)], the Preventive value with Botrytis cinerea and with Sphaerotheca fuliginea was 40 throughout. As for `Fc1ccc(Oc2ccnc3cc(Cl)cc(Cl)c23)cc1` [Quinoxyfen (b-63), Quinoxyfen], the figures for the Preventive value with Botrytis cinerea and in the experiment with Sphaerotheca fuliginea were 17 and 60, respectively. Compound `Cc1nc(C(F)(F)F)c(C(=O)Nc2c(Br)cc(OC(F)(F)F)cc2Br)s1` [Thifluzamide (b-42), Thifluzamide] registered a Preventive value in the experiment on Botrytis cinerea of 23. For the same compound, the Control value in the experiment on Sphaerotheca fuliginea came to 73.

On to `CC(C)C1CCC(Cc2ccc(Cl)cc2)C1(O)Cn1cncn1` (stereo not drawn) [Ipconazole (b-25), Ipconazole], for which the figures for the Preventive value with Botrytis cinerea and in the experiment with Sphaerotheca fuliginea were 40 and 50, respectively.

As for `COc1ccccc1N1CCS/C1=C(/C#N)Sc1cc(C(F)(F)F)ccc1F` [Flutianil (b-77), Flutianil], the Preventive value with Botrytis cinerea was found to be 17; in the experiment on Sphaerotheca fuliginea it was 67. Regarding `OP(O)O` [Phosphorous acid (b-105), Phosphorous acid], the Preventive value in the experiment with Botrytis cinerea and with Sphaerotheca fuliginea was 33 in each case.
